The structures appear in SMILES notation.

The test deals with zebrafish embryos, gene expression at 48 hpf. Briefly: Targeted transcriptomics (TempO-Seq S1500+ zebrafish panel), differential expression. The class given is in vivo, Danio rerio. As to conditions: 20 μM. How it is done:
Targeted transcriptomics were performed using the Biospyder™ TempO-Seq™ 96-well plate platform. This platform used detector oligos for a gene set of 3112 probes selected through data driven approaches and expert curation ([Balik-Meisner et al., 2019]). The targeted transcriptomics approach was selected to maximize the number of chemicals that could be included in the analysis while managing cost and data analysis requirements. Targeted transcriptomics were limited to 96 samples, three chemicals without morphological effects were excluded from the analysis to ensure n = 4 per chemical and n = 6 controls, excluded chemicals are indicated in SI-T3.
A single exposure concentration of 20 μM was chosen as the maximum possible concentration to elicit a biological response that also ensured enough viable animals for RNA collection for every chemical. The same concentration per chemical was chosen as opposed to a phenotypically anchored concentration due to variability in 48 hpf survival across chemicals at the same 120 hpf percent effect and to allow for a direct comparison of chemical potency and transcriptomic response. 48 hpf was chosen to ensure the measurement of transcriptomic responses prior to the emergence of observable phenotypic effects. This timepoint has been used extensively and enhanced the ability to compare our results across datasets. Exposure was conducted over two days, chemicals were split into day groups by numerical order of randomly generated internal labels, 11 chemicals and control each day, n = 48 embryos across six vials per treatment. Exposure was conducted as previously described in section 2.3. At 48 hpf embryos were collected for RNA extraction. Embryos from two exposure vials were kept for morphological effect assessments which were as expected based on screening results. From the remaining wells, six phenotypically normal embryos were collected and pooled in their vial groups into 1.5 mL Eppendorf tubes, placed on ice (~30 sec), excess medium was removed, placed back on ice (~30 sec), and 200 μL RNA shield was added. […] of n = 6 pooled embryos were collected from each treatment.
RNA was extracted from exposure groups on day one and day two. 100 μL of lysis buffer was added to each tube containing pooled embryo samples and 200 μL of RNA shield, the full contents of the tube were then transferred to the homogenization plate (2 mL deep 96-well plate pre-filled with 400 μL 1 mm zirconium beads and 500 μL of lysis buffer). The plate was homogenized for 1.5 min using the Mini-BeadBeater 96 (BioSpec Products, Bartlesville, OK, United States) and centrifuged for five min at 3000 rcf. 550 μL of the supernatant was distributed over two plates, each pre-filled with 275 μL of ethanol. RNA extraction was performed using the KingFisher Apex System (ThermoFisher Scientific, Waltham, MA, United States) and Quick-RNA Magbead kit (Zymo Research Corporation, Irvine, CA, Untied States). Briefly, this automated process uses Mag beads to collect RNA from the sample, after a series of washes and treatment with DNase the RNA is eluted in 50 μL of ultra-pure water. RNA quality was assessed using the 4150 TapeStation System (Agilent, Santa Clara, CA, United States). All samples used had RNA integrity number (RIN) scores >9.8. RNA concentration was determined using Quant-iT RNA Reagent and assay kit and Varioskan ALF multi-mode plate reader (ThermoFisher Scientific, Waltham, MA, United States) in duplicate, samples with high variability (coefficient of variance (CV) > 10) between reads were repeated in triplicate. The average of the quantification reads was used for RNA concentration normalization. […] All 94 samples were normalized using ultra-pure water to the lowest concentration sample − 14.9 ng/μL. […]

Take `Cc1ccc2cccc(C)c2c1` [1,7-dimethylnaphthalene]: the “number of differentially expressed genes (DEGs)” value (p-value ≤ 0.05 and log2FC ≥ |1|, result in words) is listed as “substantially more DEGs than the rest of the chemicals tested”. For the setting “result in words”, the nt5dc2 expression entry is “decreased expression”. Moreover, under “vs global control (SI-T13)”, the “logFC CCN1” value is on record as -1.157, the “logFC FGFBP2B” value was -1.676, the “logFC MFAP2” value is reported as -0.751 and the “logFC PDE6GB” value is on record as -0.7875. The “logFC PLOD1A” value (vs global control (SI-T13)) is listed as -3.2359.

`Cc1ccc2ccc(C)cc2c1` [2,7-dimethylnaphthalene]: the nt5dc2 expression entry (result in words) is on record as “decreased expression”.

As for `CCc1ccc2ccccc2c1` [2-ethylnaphthalene], where the note is “result in words”, the nt5dc2 expression entry is recorded as “decreased expression”.
